Like-named read-outs stand apart in the source and are kept apart here.
What was measured:
[1] = tested on: wheat (Triticum aestivum); conditions: spray
Procedure: (§1) The herbicidal effect of formic acid was compared with that of acetic acid in a greenhouse study using radish (Raphanus sativus) and wheat (Triticum aestivum) as test plants. Both formic acid and acetic acid were diluted in water at 1, 3, and 5%, and deionized water was used as a control. Tween 20 was added to each of the solutions at a rate 0.04% for use as a surfactant. Solutions were applied to plants using a small handheld sprayer. Plants were evaluated at 24- and 72-hours after treatment for the % control.

[2] = tested on: radish (Raphanus sativus); conditions: spray
Procedure: as §1

[3] = tested on: monocotyledonous wheat plants (Triticum aestivum); conditions: foliar spray 5%; one day post-treatment
Source text: (§2) In order to determine whether formic acid could be used as a foliar herbicide it was applied as a foliar spray to the leaves of dicotyledonous radish plants (Raphanus sativas) and monocotyledonous wheat plants (Triticum aestivum). Solutions were applied to plants using a small handheld sprayer.
(§3) Formic acid and acetic acid solutions at three concentrations (1%, 3%, 5%) were applied and water was used as a check. A barrier was inserted between the rows of plants on either side of the row being treated to avoid drift of sprays into neighboring rows. Plants were evaluated at 24-hour and 72-hour intervals for the number of surviving plants and a percentage was derived from this number in comparison with the number of plants originally present in the row.

[4] = tested on: dicotyledonous radish plants (Raphanus sativas); conditions: one day post-treatment
Source text: as §2, §3

[5] = tested on: Canada thistle and other perennials; conditions: cited from earlier work
[6] = tested on: annual weeds tested including foxtail, lambsquarters, and pigweed; conditions: found by the USDA; cited from earlier work

SMILES: CC(=O)O [Acetic acid]
- % control of wheat seedlings ([1]; 5%, 72-h): 28%
- % control of wheat seedlings ([1]; lower concentrations (1 and 3%), after 72-h): 5-14%
- % control of the dicot weeds (radish) ([2]; 1%): 51%
- % control of the dicot weeds (radish) ([2]; 3%): 71%
- control of radish plants compared with formic acid (100%) ([2]; 5% dilution): comparable
- wheat plants killed [3]: 30%
- foliage surviving, radish ([4]; foliar spray 1%): 50%
- foliage surviving, radish ([4]; foliar spray 3%): 30%
- killing of foliage of radish plants ([4]; foliar spray 5%): killed all foliage
- control of perennials [5]: does not control the root system
- share of annual weeds tested against which effective [6]: 80%

Source: patent US20070281857A1, “FORMIC ACID AS AN HERBICIDE” (MARRONE ORGANIC INNOVATIONS, priority 2006, published 2007)
